According to patent US20240115875A1, “Systems, Methods, and Substances for Controlled Endoluminal Energy Application” (Dream Big Biotechnologies B.V., priority 2021, published 2024):

Legend:
[1] = system: tumor tissue; details: input of the simulation, cited from earlier work; for Tumor uptake: assumed tissue uptake; for Molar extinction coefficient ϵ: at the wavelength given with each photosensitizer (630-690 nm)
[2] = system: tumor tissue; assay: Estimated PDT threshold doses for several photosensitizers (photodynamic threshold model); details: in tumor, from uptake and molar weight
Method: In these simulations, we assumed intravenous administration of a light-absorbing drug and the placement of a light emitter in the endovascular system at the site of tumor encroachment around it. Light absorbed by the photosensitizer was assumed to result in the local creation of short-lived cytotoxic radicals, causing cell death e.g. hemorrhagic tissue necrosis and apoptosis. To quantify the attainable effects, light-dose escalation studies were performed using Monte Carlo light propagation simulations (FullMonteCUDA) (“High-performance, robustly verified Monte Carlo simulation with FullMonte,” J. Biomed. Opt. 23(8), 085001 (2018)). The use of the photosensitizer BPD-MA mediated PDT was initially investigated in a simple “cube and tube” geometry representing the pancreas and a vessel traversing its center. The multilayered tube represented the vascular wall layers, intima, media and adventitia having an air-filled balloon with a linear line source in the center. […] Simulation properties were assigned as described above and PDT activation energies were escalated over the range of 10-100 J cm^−1 diffuser length, and the anticipated threshold dose in mJ·cm^−3 and radii of necrosis were estimated based on the photodynamic threshold model introduced by Patterson M, Wilson B C, Graff R: In vivo test of the concept of photodynamic threshold dose in normal rat liver photosensitized by aluminum chlorosulfunated phthalocyanine. Photochem Photobiol, 51(3): 343-349, 1990.
The pancreatic model is shown in FIG. 7A comprising a 4×4×5 cm cube, one half is assigned with optical properties of normal pancreatic tissue and the other half with those of cancerous pancreatic tissues. Running through the cube's center is a blood vessel made up of three layers, intima, media, adventitia, with assigned properties from the literature for aortic tissues. An initial dose-escalation simulation investigated if an adequate fluence [J·cm^−2] can be delivered through the vessel wall to create a surgically sufficiently large circumferential necrotic margin (mm) surrounding the vessel, based on the photosensitizer accumulation and the sensitizer's molar extinction coefficient. The vessel's inner diameter and wall thickness were set to 7.0 mm and 1.30 mm, respectively. The energy emitting source was cylindrical in shape with a length of 20 mm and the irradiance at the intima surface was fixed at 200 mW·cm^−2. The exposure times escalated to deliver 10 to 100 J total energy. An example of the absorbed energy density as a function of radius from the vessel center is shown in FIG. 7B, with an estimated necrotic margin ranging from […]. The subsequent necrotic clearing of viable tumor tissue from the adventitia is predicted based on the threshold model for common photosensitizers, see Tables 1 and 2.

[3] = system: porcine pancreas and target vessels (splenic, hepatic, superior mesenteric artery)
Method: Five large white porcine (Sus scrofa domesticus), weighing between 25-43 kg, were used as animal model, because the anatomy of the porcine pancreas and its vasculature closely resembles that of the human. Animals were handled according to the European Directive 2010/63 and French laws concerning animal protection in laboratories.
Following the intravascular procedure, porcine recovered from anesthesia and were housed for a survival period of 24 hours up to one week. After the survival period the sedation protocol above was repeated and general anesthesia was induced using intravenous (18 G Intravenous catheter in-ear vein) propofol 3 mg/kg, followed by orotracheal intubation and maintained with rocuronium 0.8 mg/kg along with inhaled isoflurane 2%. At the end of the experiment, animals were euthanized with an intravenous injection of pentobarbital 40 mg/kg IV (Exagon ND, Axience).
To counteract possible effects of BPD-MA on the porcine blood pressure, the antihistamine dexchlorpheniramine was given the days before and immediately prior to the start of photosensitizer infusion. Polaramine® was administered at 2 mg p.o. BID to TID the day before and Polaramine® 5 mg IV (slow bolus) 30 to 60 minutes before photosensitizer injection. Methylprednisolone SoluMedrol®120 (3 mg kg-1) was administered also IV (slow bolus) 30 to 60 minutes before photosensitizer injection. […]
To visualize the pancreas and its target vessels for treatment planning, non-enhanced and contrast-enhanced CT scans were carried out shortly before treatment, in the early arterial and early portal venous phase. […] A 3D vascular roadmap was obtained via software manipulation (syngo.via, Siemens Healthineers AG, Germany) and the position, morphology and dimensions of the target vessels were assessed and used for later co-localization during the angiography-guided procedure and placement of a suitably sized PDT light source, being a prototype irradiating balloon catheter. […]

[4] = In-vivo porcine model, heart rate and blood pressure during photosensitizer infusion; parameters: species or system Sus scrofa domesticus; details: for changes in blood pressure or heart rate during the injection: 5% i.v. dextrose drip
Method: The preclinical experiments in pigs required some precautions.
[…] […] The animal gradually recovered after 10 to 20 min and stabilized to normal heart rates.

[5] = system: porcine pancreas, splenic vein and artery; assay: In-vivo dose escalation in healthy porcine, endovascular balloon-catheter PDT, 48h CT and histopathology
Method: The performance of Monte Carlo simulations determined that the photosensitizer verteporfin appears to be a suitable photosensitizer and that perivascular necrosis can occur when irradiating at relevant light dose ranges in a clinically acceptable time range of several minutes. In-vivo experiments were carried out in healthy porcine (n=7) delivering light irradiation from an endovascular balloon-catheter laser probe.
The irradiating balloon catheter was placed in the splenic vein (crosshair) and an increasingly large hypodense margin, interpreted as PDT induced necrosis, can be observed for increasing doses.
In FIG. 12A, the pancreas can be observed with the splenic vein, artery, and the approximate location of the irradiating balloon catheter. Radially extending into the pancreas is a circumferential margin of necrosis (dotted line and arrows, circa 10 mm).

Molecule	Tumor uptake [1]	Photosensitizer concentration [2]	Molar extinction coefficient ϵ [1]	hypodense area around the target vessel on contrast-enhanced CT, extending outwards from the outer wall of the vessel (possible PDT-induced necrosis) ([3]; 0.4-1.6 mg·kg^−1 i.v., 690 nm, 150 mW·cm^−2, 75-225 J·cm^−2, CT 24 h to one week)	splenic arterial wall histopathology ([3]; in vivo)	vessel structural integrity on contrast-enhanced CT ([3]; in vivo)	changes in heart rate during injection ([4]; first porcine, i.v. saline drip, without pre-medications, injection stopped at 0.2 mg kg^−1)	changes in blood pressure or heart rate during the injection ([4]; porcine 2-3, pre-medicated excluding heparin, 0.4 mg·kg^−1)	changes in blood pressure or heart rate during the injection ([4]; porcine 4-5, pre-medicated including heparin, 1.6 mg·kg^−1)	radius of apparent perivascular circumferential tissue necrosis ([5]; 0.4-3.2 mg/kg, light irradiation 8-25 minutes, 48h contrast-enhanced CT and histopathology, n=7)	artery and vein wall histopathology ([5]; L-size dose 1.6 mg/kg, 48h post PDT)	circumferential margin of necrosis extending into the pancreas, histopathology ([5]; L-size dose 1.6 mg/kg, 48h post PDT, H&E and EVG)
c1ccc2c(c1)-c1nc-2nc2[nH]c(nc3nc(nc4[nH]c(n1)c1ccccc41)-c1ccccc1-3)c1ccccc21 [Phthalocyanine]	12.3 mg/g	2.3 · 10^−5 M	–	–	–	–	–	–	–	–	–	–
C=Cc1c(C)c2cc3nc(c(CC(=O)N[C@@H](CC(=O)O)C(=O)O)c4[nH]c(cc5nc(cc1[nH]2)C(C)=C5CC)c(C)c4C(=O)O)[C@@H](CCC(=O)O)[C@@H]3C [Talaporfin]	1.62 mg/g	2.2 · 10^−6 M	40,000 M^−1 cm^−1	–	–	–	–	–	–	–	–	–
Oc1cccc(-c2c3nc(c(-c4cccc(O)c4)c4ccc([nH]4)c(-c4cccc(O)c4)c4nc(c(-c5cccc(O)c5)c5ccc2[nH]5)CC4)C=C3)c1 [Temoporfin, 5,10,15,20-Tetra(m-hydroxyphenyl)chlorin]	0.5 mg/g	–	–	–	–	–	–	–	–	–	–	–
Photofrin	8.1 mg/g	6.8 · 10^−6 M	1,170 M^−1 cm^−1	–	–	–	–	–	–	–	–	–
benzoporphyrin derivative monoacid ring A [Verteporfin]	23.9 mg/g	3.3 · 10^−5 M	33,000 M^−1 cm^−1	2-6 mm	endothelial loss and necrotic cellular tissues were observed, but the extracellular matrix containing collagen and elastin was preserved in some cases	no perforations, ruptures, and bleedings were observed	Immediate changes occurred in the heart rate, decreasing to a degree that adrenaline was administered to stabilize the animal	No changes occurred in blood pressure or heart rate during the injection	No changes occurred in blood pressure or heart rate during the injection	2-15 mm	intact vessel unruptured walls albeit with atrophic muscular cells and ulcerated endothelial cells	circa 10 mm
